“Also recorded” adds a separate entry of the source. Blank lines part the entries; values can stand above or below the molecule they belong to. *1 amine or outer side, *2 acyl side, *3 side chain or, on linkers, in order; H or OH if unused. Where a SMILES comes first, the peptide text is derived from it. Where no end group is shown, it is not given here. [ ]: non-standard residue; d: D form. The star is where a group is joined. ξ: configuration not given here. ξ(4-Aminopyrrolidine-3-CO) = O=C(C1CNCC1N[*:1])[*:2]; NH(1S,2S-2-CONH2-cPent) = NC(=O)[C@H]1CCC[C@@H]1N*; ACPC(1S,2S) = N[C@H]1CCC[C@@H]1C(=O)*; X1 = O=C([C@H]1CCC[C@@H]1N[*:1])[*:2]; X2 = O=C([C@H]1CNC[C@@H]1N[*:1])[*:2]; Aib = CC(C)(N)C(=O)O
Key:
[1] = biological target: T1, HER2 (Homo sapiens, UniProt P04626); conditions: cited from earlier work
[2] = biological target: T2, VEGF (Homo sapiens, UniProt P15692); assay: VEGF competition fluorescence polarization (FP) assay; assay type: binding; conditions: for binding to VEGF (in words): competition FP assay
T2 construct: made in house
T2 sequence (P15692 27-191 isoform P15692-4): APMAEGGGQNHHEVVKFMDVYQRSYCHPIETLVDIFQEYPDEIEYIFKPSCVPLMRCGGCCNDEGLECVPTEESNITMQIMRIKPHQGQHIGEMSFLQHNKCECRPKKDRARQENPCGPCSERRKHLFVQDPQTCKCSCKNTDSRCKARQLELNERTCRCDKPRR
Protocol: Inhibitors of the VEGF/VEGFR interaction were evaluated using VEGF direct binding and competition fluorescence polarization (FP) assays, as previously described (Peterson, K. J. et al., Anal. Biochem. 2008, 378, 8-14), but using a modified tracer. […] DMSO stock solutions of α- and α/β-peptide inhibitors were prepared and concentration determined by UV absorbance at 280 nm. Extinction coefficients for α- and α/β-peptides were calculated based on the number of tryptophans (ε280=5690 M^−1 cm^−1), tyrosines (ε280=1280 M^−1 cm^−1), and cystines (ε280=120 M^−1 cm^−1) in each primary sequence (Gill, S. C, et al. Anal. Biochem. 1989, 182, 319-326). […] Each condition was run in duplicate in each assay. Inhibition constants (Ki) were determined from FP data using methods described for a competitive binding model with GraphPad Prism 4.0 (Peterson, K. J. et al., Anal. Biochem. 2008, 378, 8-14). Reported Ki values are representative values from multiple replicate assays.
FP assays were only run once to test binding affinity.

[3] = Half-life of Z-HER2 mimics (Table 16); assay type: in vitro ADME; conditions: conditions not given; read-out: half-life t1/2
[4] = biological target: T1, HER2; assay: Z-HER2 mimics binding, ELISA 3; conditions: read-out: ELISA 3 Ki calcd.
[5] = biological target: T3, TNFα (binding to immobilized TNFR1) (Homo sapiens, UniProt P01375); assay: TNFα/TNFR competition ELISA; conditions: Table 14; read-out: TNFa-TNFR ELISA IC50
T3 construct: purchased R&D Systems 210-TA-020 (TNFα); 636-R1-025 (sTNF RI)
Protocol: The binding of α/β-peptides to TNFα to inhibit binding to TNFR was determined by competition ELISA. […] After immobilization, the plate was washed with PBS/0.05% TWEEN, blocked with 1% BSA in PBS for 2 hours, and then washed with PBS/0.05% TWEEN. Serial dilutions of soluble α/β-peptides in DMSO were prepared (final concentrations=0.04 nM-10 μM), and 10 μL of each of these solutions added to 240 μL of recombinant human TNFα (R&D Systems, 210-TA-020, final concentration=0.080 μg/mL) in PBS/0.05% TWEEN. The α/β-peptides were allowed to pre-incubate with TNFα for 3 hours and then 50 μL of each α/β-peptide/TNFα mixture was added to wells on the ELISA plate and incubated at room temperature for 1 hour. The plate was then washed with PBS/0.05% TWEEN and the presence of TNFα detected by adding 100 μL of a 1:500 dilution of Human TNFα Biotinylated Affinity Purified PAb (R&D Systems, BAF210) and incubating at room temperature for 1 hour. […] Plates were read during the time course of the reaction on a BioTek Synergy 2 microplate reader, reading A405. […] To compare the ability of each soluble α/β-peptide to inhibit the binding of TNFα to immobilized TNFR, IC50 values were calculated by fitting the ELISA absorbance data to a sigmoidal dose-response equation.

[6] = tested on: VEGF-induced proliferation of human umbilical vein endothelial cells (HUVECs); assay: HUVEC proliferation assay (VEGF165-induced, Click-iT EdU); assay type: cell-based; conditions: 50 μM peptide, 10 ng/mL VEGF165
Protocol: Human umbilical vein endothelial cells (HUVECs) (Lonza, Basel, Switzerland, catalog no. CC2519) were cultured using Medium 199 (M199) (Mediatech, Herndon, Va., USA; 50-050-PB) supplemented with penicillin/steptomycin (HyClone-brand, Thermo Fisher Scientific, Herndon, Va., USA; SV30010) and EGM-2 (Lonza, CC4176) at 37° C. in 5% CO2. Cells were grown to 60-80% confluence and then serum-starved in M199 with 2% cosmic calf serum (CCS) (HyClone-brand, SH30087) overnight. […] Filter sterilized stock solutions of α- or α/β-peptide in PBS were made at a concentration of 200 μM, as determined by UV absorbance. Appropriate dilutions of α- or α/β-peptide were made with PBS, and the resulting solutions were premixed with recombinant human VEGF165 (R&D Systems, 293-VE-010) or recombinant human FGF basic (FGF-2) (R&D Systems, a wholly owned subsidiary of TECHNE Corporation, Minneapolis, Minn., USA; 233-FB-025) in M199/2% CCS and incubated at room temperature for 1 hour. […] Relative cell proliferation was quantified using the “Click-iT”-brand EdU Alexa Flour 488 Assay (Life Technologies, C10337). […] EdU incorporation was detected using Life Technologies' assay protocol. […] Images were analyzed using NIS-Elements AR Imaging Software (Nikon Instruments, Inc., Melville, N.Y., USA) to count the number of proliferating cells (EdU stained) and total number of cells (Hoechst stained). […]

[7] = Aqueous solubility (PBS)

T3 sequence (P01375 77-233 limits assumed): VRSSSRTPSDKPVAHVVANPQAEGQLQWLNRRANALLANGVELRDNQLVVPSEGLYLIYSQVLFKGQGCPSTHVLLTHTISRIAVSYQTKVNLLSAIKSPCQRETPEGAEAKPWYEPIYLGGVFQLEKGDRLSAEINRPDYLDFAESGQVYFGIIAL

Molecule: 82 (VENKFNKEMRNAYWEIALLPNLNNQQKRAFIRSLYDDPG; listed as Homo sapiens) [compound 82]
reported Kd [1]: no blinding

Ki ([2]; Table 5, early mimics, FP assay run once): > 50 µM
Molecule: CC[C@H](C)[C@H](NC(=O)[C@H](C)NC(=O)[C@H]1CCC[C@@H]1NC(=O)[C@H](C)NC(=O)[C@H](CC(N)=O)NC(=O)[C@H](Cc1c[nH]cn1)NC(=O)[C@H]1CCC[C@@H]1NC(=O)[C@H](CCC(=O)O)NC(=O)[C@@H](N)CCCCN)C(=O)N[C@@H](CCC(=O)O)C(=O)N[C@H](C(=O)N[C@@H](C)C(=O)N[C@@H](CC(C)C)C(=O)N[C@@H](CC(C)C)C(=O)N1CCC[C@H]1C(=O)N[C@@H](CC(N)=O)C(=O)N[C@@H](CC(C)C)C(=O)N[C@@H](CC(N)=O)C(=O)N[C@@H](CC(=O)O)C(=O)N[C@@H](CCC(N)=O)C(=O)N[C@@H](CCC(N)=O)C(=O)N[C@@H](Cc1ccccc1)C(=O)N[C@@H](Cc1c[nH]cn1)C(=O)N[C@@H](C)C(=O)N[C@H]1CCC[C@@H]1C(=O)N[C@H](C(=O)N[C@@H](Cc1c[nH]c2ccccc12)C(=O)N[C@H]1CCC[C@@H]1C(=O)N[C@@H](CC(C)C)C(=O)N[C@H](C(=O)N[C@@H](CC(=O)O)C(=O)N[C@@H](CC(=O)O)C(=O)N1CCC[C@H]1C(=O)N[C@@H](CO)C(N)=O)[C@@H](C)CC)[C@@H](C)CC)[C@@H](C)CC [E4, KEXHNAXAIEIALLPNLNDQQFHAXIWXLIDDPS] (H-KE[X1]HNA[X1]AIEIALLPNLNDQQFHA[X1]IW[X1]LIDDPS-NH2)

half-life [3]: 4.33 h
Ki [4]: 0.033 µM
Molecule: CC[C@H](C)[C@H](NC(=O)C1CNCC1NC(=O)[C@H](CCCNC(=N)N)NC(=O)[C@@H](NC(=O)[C@H](CCCCN)NC(=O)C(C)(C)NC(=O)[C@H](CCCNC(=N)N)NC(=O)[C@H](CCCCN)NC(=O)[C@H](CCC(N)=O)NC(=O)C(C)(C)NC(=O)[C@H](CC(N)=O)NC(=O)[C@H](CC(N)=O)NC(=O)[C@H](CC(C)C)NC(=O)[C@H](CC(N)=O)NC(=O)[C@@H]1CCCN1C(=O)[C@H](CC(=O)O)NC(=O)[C@H](CC(C)C)NC(=O)[C@H](C)NC(=O)C(C)(C)NC(=O)[C@H](CCC(=O)O)NC(=O)[C@H](Cc1c[nH]c2ccccc12)NC(=O)[C@H](Cc1ccc(O)cc1)NC(=O)[C@H](CCCNC(=N)N)NC(=O)C1CNCC1NC(=O)[C@H](CCCNC(=N)N)NC(=O)[C@H](CCSC)NC(=O)[C@H]1CCC[C@@H]1NC(=O)[C@H](CCCCN)NC(=O)[C@H](CC(N)=O)NC(=O)[C@@H](N)Cc1ccccc1)[C@@H](C)CC)C(=O)N[C@@H](Cc1ccc(O)cc1)C(=O)N[C@@H](CC(=O)O)C(=O)N[C@@H](CC(=O)O)C(=O)N1CCC[C@H]1C(=O)N[C@@H](CO)C(N)=O (stereo partly shown) [compound 97] (H-FNK[X1]MR[ξ(4-Aminopyrrolidine-3-CO)]RYWE[Aib]ALDPNLNN[Aib]QKR[Aib]KIR[ξ(4-Aminopyrrolidine-3-CO)]IYDDPS-NH2)

IC50 [5]: 1 µM
Molecule: CC[C@H](C)[C@H](NC(=O)[C@H](CCCNC(=N)N)NC(=O)[C@H](Cc1c[nH]c2ccccc12)NC(=O)CNC(=O)[C@@H](N)CC(C)C)C(=O)NCC(=O)N[C@@H](CCC(=O)O)C(=O)NC(C)(C)C(=O)NCC(=O)N[C@H](C(=O)N[C@@H](CC(=O)O)C(=O)N1CCC[C@H]1C(=O)N[C@@H](CC(N)=O)C(=O)N[C@@H](CC(C)C)C(=O)N[C@@H](CC(N)=O)C(=O)N[C@@H](Cc1c[nH]cn1)C(=O)N[C@@H](CCC(N)=O)C(=O)N[C@@H](CCC(N)=O)C(=O)N[C@@H](Cc1ccccc1)C(=O)N[C@@H](CCCNC(=N)N)C(=O)NC(C)(C)C(=O)N[C@@H](CCCCN)C(=O)N[C@H](C(=O)N[C@@H](CC(C)C)C(=O)N[C@H]1CNC[C@@H]1C(=O)N[C@H](C(=O)N[C@@H](Cc1c[nH]c2ccccc12)C(=O)N[C@H]1CCC[C@@H]1C(N)=O)[C@@H](C)CC)[C@@H](C)CC)[C@@H](C)O [α/β-TNFα-14, LGWRIGEAGTDPNLNHQQFRAKILZIWX-NH2] (H-LGWRIGE[Aib]GTDPNLNHQQFR[Aib]KIL[X2]IW-{NH(1S,2S-2-CONH2-cPent)}; N-terminus assumed)

IC50 [5]: 0.51 µM
Molecule: CC[C@H](C)[C@H](NC(=O)[C@H](CCCNC(=N)N)NC(=O)[C@H](Cc1c[nH]c2ccccc12)NC(=O)CNC(=O)[C@H](CC(C)C)NC(=O)[C@H]1CCC[C@@H]1N)C(=O)NCC(=O)N[C@@H](CCC(=O)O)C(=O)NC(C)(C)C(=O)NCC(=O)N[C@H](C(=O)N[C@@H](CC(=O)O)C(=O)N1CCC[C@H]1C(=O)N[C@@H](CC(N)=O)C(=O)N[C@@H](CC(C)C)C(=O)N[C@@H](CC(N)=O)C(=O)N[C@@H](Cc1c[nH]cn1)C(=O)N[C@@H](CCC(N)=O)C(=O)N[C@@H](CCC(N)=O)C(=O)N[C@@H](Cc1ccccc1)C(=O)N[C@@H](CCCNC(=N)N)C(=O)NC(C)(C)C(=O)N[C@@H](CCCCN)C(=O)N[C@H](C(=O)N[C@@H](CC(C)C)C(=O)N[C@H]1CNC[C@@H]1C(=O)N[C@H](C(=O)N[C@@H](Cc1c[nH]c2ccccc12)C(=O)N[C@H]1CCC[C@@H]1C(N)=O)[C@@H](C)CC)[C@@H](C)CC)[C@@H](C)O [α/β-TNFα-16, XLGWRIGEAGTDPNLNHQQFRAKILZIWX-NH2] ({ACPC(1S,2S)}-LGWRIGE[Aib]GTDPNLNHQQFR[Aib]KIL[X2]IW-{NH(1S,2S-2-CONH2-cPent)}; N-terminus assumed)

Molecule: KEMHNAYAIEIALLPNLNDQQFHAFIWSLIDDPS-NH2 [Z-VEGF (7-40)]
binding to VEGF (in words) [2]: showed no binding

Molecule: VDNKFNKEMHNAYAIEIALLPNLNDQQFHAFIWSLIDD-NH2 [Z-VEGF (1-38)]
binding to VEGF (in words) [2]: shows no binding
binding to VEGF (in words) ([2]; listed as Z-VEGF(1-38)): complete loss of binding

Molecule: VDNKFNKEQHNARAIEAALDPNLNDQQFHAKIWSIIDD-NH2 [α-VEGF-1]
inhibition of VEGF-induced HUVEC proliferation (in words) [6]: does not show any inhibition
solubility in PBS at 75 μM [7]: fully soluble
binding to VEGF (in words) [2]: does not show binding; also recorded: did not recover binding

Molecule: VDNKFNKEXHNZRAIEAALDPNLNDQQFHAKIWZIIXD [α/β-VEGF-1-linear]
binding to VEGF (in words) [2]: lack of binding; also recorded: essentially no binding

Source: patent US9284362B2, “α/β-peptide mimics of Z-domain peptides” (Wisconsin Alumni Research Foundation, priority 2014, dated 2016)
